{"source": "patent US20100143322A1", "about": "“USE OF INHIBITORS OF N-METHYL TRANSFERASES FOR THE THERAPY OF PARKINSON'S DISEASE” (priority 2005, published 2010)", "origin": "cited, not measured here", "biological_target": "T1, phenylethanolamine N-methyl transferase (PNMT) (Homo sapiens, UniProt P11086)", "T1 sequence (P11086 1-282)": "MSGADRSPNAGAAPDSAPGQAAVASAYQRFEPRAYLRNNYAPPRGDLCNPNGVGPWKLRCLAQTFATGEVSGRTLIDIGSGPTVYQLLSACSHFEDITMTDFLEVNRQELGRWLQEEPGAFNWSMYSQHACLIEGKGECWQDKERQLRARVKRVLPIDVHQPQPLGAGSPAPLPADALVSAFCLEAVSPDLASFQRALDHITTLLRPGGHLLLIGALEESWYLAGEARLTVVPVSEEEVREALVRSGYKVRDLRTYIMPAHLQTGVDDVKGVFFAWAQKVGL", "conditions": "less than 2 mg of Ala-Cys-Cys, isolated from rabbit liver and purified", "data": [{"substance": "Ala-Cys-Cys", "values": [{"measurement": "inhibition of the PNMT in the PNMT test", "result": "> 90", "unit": "%"}]}]}
